Assay results as given in PubChem BioAssay AID272 (DTP/NCI, 2004).
“And” between values parts separate entries of the source, which are not always exact repeats. Identical values can stand only once. Results filed as inconclusive are left out.

System: Lewis lung carcinoma i.m., BDF1 mice, T/C %
Assay: NCI In Vivo Anticancer Drug Screen. Data for tumor model Lewis Lung Carcinoma (intramuscular) in B6D2F1 (BDF1) mice
Method: The antitumor activity of compounds was measured in mice bearing transplantable tumors. Survival or tumor size were measured and the results are expressed as the measurement made in the treated group (T) divided by the measurement made in the vehicle treated control group (C). The tumor model used in this assay is Lewis Lung Carcinoma (intramuscular) in B6D2F1 (BDF1) mice

In the case of COc1cccc2c1C(=O)c1c(O)c3c(c(O)c1C2=O)C[C@@](O)(C(=O)CO)C[C@@H]3OC1CC(N)C(O)C(C)O1 (stereo partly specified), the T/C (endpoint: median survival time, dose: 0.25 mg/kg/injection, schedule: Q01DX011 (ip), vehicle: water, higher = longer survival) is reported as 100 % of control and 120 % of control, the T/C (endpoint: median survival time, dose: 0.65 mg/kg/injection, schedule: Q03HX008 (ip), vehicle: water, higher = longer survival) is reported as 100 % of control and 102 % of control and the T/C (endpoint: median survival time, dose: 1.08 mg/kg/injection, schedule: Q03HX008 (ip), vehicle: water, higher = longer survival) is reported as 123 % of control. For the same molecule, the T/C (endpoint: median survival time, dose: 1.8 mg/kg/injection, schedule: Q03HX008 (ip), vehicle: water, higher = longer survival) was 26 % of control and the T/C (endpoint: median survival time, dose: 3.0 mg/kg/injection, schedule: Q03HX008 (ip), vehicle: water, higher = longer survival) was 17 % of control.
For COc1cc(C(=O)OC2CC34CCNC35CC(OC5(OC)C2O)c2cc3c(cc24)OCO3)ccc1O (stereo unspecified), the T/C (endpoint: mean tumor weight, dose: 1.0 mg/kg/injection, schedule: Q01DX011 (ip), vehicle: carboxymethylcellulose (CMC), higher = larger tumour) was 81 % of control, the T/C (endpoint: mean tumor weight, dose: 2.0 mg/kg/injection, schedule: Q01DX011 (ip), vehicle: carboxymethylcellulose (CMC), higher = larger tumour) was 70 % of control and the T/C (endpoint: mean tumor weight, dose: 4.0 mg/kg/injection, schedule: Q01DX011 (ip), vehicle: carboxymethylcellulose (CMC), higher = larger tumour) was 49 % of control. The T/C (endpoint: median survival time, dose: 2.0 mg/kg/injection, schedule: Q01DX011 (ip), vehicle: carboxymethylcellulose (CMC), higher = longer survival) was 91 % of control and the T/C (endpoint: median survival time, dose: 4.0 mg/kg/injection, schedule: Q01DX011 (ip), vehicle: carboxymethylcellulose (CMC), higher = longer survival) was 86 % of control.
In the case of N=[N+]=CC(=O)OCC(N)C(=O)O (stereo unspecified), the T/C (endpoint: mean tumor weight, dose: 2.0 mg/kg/injection, schedule: Q01DX011 (ip), vehicle: saline, higher = larger tumour) is reported as 94 % of control, the T/C (endpoint: mean tumor weight, dose: 4.0 mg/kg/injection, schedule: Q01DX011 (ip), vehicle: saline, higher = larger tumour) is reported as 71 % of control and the T/C (endpoint: mean tumor weight, dose: 8.0 mg/kg/injection, schedule: Q01DX011 (ip), vehicle: saline, higher = larger tumour) is reported as 27 % of control. For the same molecule, the T/C (endpoint: median survival time, dose: 2.0 mg/kg/injection, schedule: Q01DX011 (ip), vehicle: saline, higher = longer survival) was 96 % of control and 107 % of control, the T/C (endpoint: median tumor weight (est.), dose: 2.0 mg/kg/injection, schedule: Q01DX011 (ip), vehicle: saline, higher = larger tumour) was 79 % of control and the T/C (endpoint: median tumor weight (est.), dose: 8.0 mg/kg/injection, schedule: Q01DX011 (ip), vehicle: saline, higher = larger tumour) was 50 % of control.
With COc1cc(OC)c(OC)cc1/C=C\c1ccnc2ccccc12 the T/C (endpoint: mean tumor weight (est.), dose: 50.0 mg/kg/injection, schedule: Q01DX011 (ip), vehicle: saline with Tween-80, higher = larger tumour) was 60 % of control, the T/C (endpoint: mean tumor weight (est.), dose: 100.0 mg/kg/injection, schedule: Q01DX011 (ip), vehicle: saline with Tween-80, higher = larger tumour) was 51 % of control and the T/C (endpoint: mean tumor weight (est.), dose: 200.0 mg/kg/injection, schedule: Q01DX011 (ip), vehicle: saline with Tween-80, higher = larger tumour) was 56 % of control. The T/C (endpoint: mean tumor weight (est.), dose: 400.0 mg/kg/injection, schedule: Q01DX011 (ip), vehicle: saline with Tween-80, higher = larger tumour) was 34 % of control, the T/C (endpoint: median survival time, dose: 50.0 mg/kg/injection, schedule: Q01DX011 (ip), vehicle: saline with Tween-80, higher = longer survival) was 105 % of control and the T/C (endpoint: median survival time, dose: 100.0 mg/kg/injection, schedule: Q01DX011 (ip), vehicle: saline with Tween-80, higher = longer survival) was 103 % of control. For the same molecule, the T/C (endpoint: median survival time, dose: 200.0 mg/kg/injection, schedule: Q01DX011 (ip), vehicle: saline with Tween-80, higher = longer survival) was 86 % of control and the T/C (endpoint: median survival time, dose: 400.0 mg/kg/injection, schedule: Q01DX011 (ip), vehicle: saline with Tween-80, higher = longer survival) was 100 % of control.
ClC1=NC(Cl)C(Cl)=N/C1=N\c1ncn[nH]1 (stereo unspecified) was tested, and the T/C (endpoint: median survival time, dose: 4.0 mg/kg/injection, schedule: Q01DX011 (ip), vehicle: saline, higher = longer survival) was 108 % of control, the T/C (endpoint: median survival time, dose: 8.0 mg/kg/injection, schedule: Q01DX011 (ip), vehicle: saline, higher = longer survival) was 91 % of control and the T/C (endpoint: median survival time, dose: 16.0 mg/kg/injection, schedule: Q01DX011 (ip), vehicle: saline, higher = longer survival) was 92 % of control.
For COc1cc(C[C@H]2c3cc(OC)c(OC)cc3CCN2C)c(Oc2cc3c(cc2OC)-c2c(OC)c(OC)cc4c2[C@H](C3)N(C)CC4)cc1OC, the T/C (endpoint: mean tumor weight, dose: 12.5 mg/kg/injection, schedule: Q01DX011 (ip), vehicle: other, higher = larger tumour) was 104 % of control, the T/C (endpoint: mean tumor weight, dose: 25.0 mg/kg/injection, schedule: Q01DX011 (ip), vehicle: other, higher = larger tumour) was 100 % of control and the T/C (endpoint: mean tumor weight, dose: 50.0 mg/kg/injection, schedule: Q01DX011 (ip), vehicle: other, higher = larger tumour) was 93 % of control. The T/C (endpoint: median survival time, dose: 12.5 mg/kg/injection, schedule: Q01DX011 (ip), vehicle: other, higher = longer survival) was 105 % of control, the T/C (endpoint: median survival time, dose: 25.0 mg/kg/injection, schedule: Q01DX011 (ip), vehicle: other, higher = longer survival) was 108 % of control and the T/C (endpoint: median survival time, dose: 50.0 mg/kg/injection, schedule: Q01DX011 (ip), vehicle: other, higher = longer survival) was 117 % of control.
In the case of S=P(N1CC1)(N1CC1)N1CC1, the T/C (endpoint: median survival time, dose: 1.5 mg/kg/injection, schedule: Q01DX011 (ip), vehicle: water, higher = longer survival) is reported as 92 % of control, the T/C (endpoint: median survival time, dose: 3.0 mg/kg/injection, schedule: Q01DX011 (ip), vehicle: water, higher = longer survival) is reported as 110 % of control and 119 % of control and the T/C (endpoint: median survival time, dose: 6.0 mg/kg/injection, schedule: Q01DX011 (ip), vehicle: water, higher = longer survival) is reported as 86 % of control.
